In patent US8952024B2, “Herbicidal pyrimidone derivatives” (E I du Pont de Nemours and Company, priority 2009, dated 2015):

Experiments:
Test in all cases: Test B pre-/postemergence plant response
Type in all cases: in vivo
[1] = tested on: giant foxtail (Setaria faberii)
In short: (§1)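 Response scores were assigned visually after 13 to 15 days in a greenhouse, comparing treated pots with controls on a 0–100 scale where 100 denotes complete control. Preemergence treatments went onto freshly seeded loam/sand soil; postemergence treatments onto plants 2 to 18 cm tall.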

[2] = tested on: yellow nutsedge (Cyperus esculentus)
In short: as §1

[3] = tested on: green foxtail (Setaria viridis)
In short: as §1

[4] = tested on: blackgrass (Alopecurus myosuroides)
In short: as §1

[5] = tested on: lambsquarters (Chenopodium album)
In short: as §1

[6] = tested on: Italian ryegrass (Lolium multiflorum); settings: for Plant response rating, Ryegrass, Italian: Postemergence, scale 0 to 100 (0 no effect, 100 complete control)
In short: as §1

[7] = tested on: downy bromegrass (Bromus tectorum)
In short: as §1

[8] = tested on: Surinam grass (Brachiaria decumbens); settings: Postemergence, scale 0 to 100 (0 no effect, 100 complete control)
In short: as §1

[9] = tested on: woolly cupgrass (Eriochloa villosa)
In short: as §1

[10] = tested on: morningglory (Ipomoea coccinea)
In short: as §1

corn (Zea mays) = tested on: corn (Zea mays)
In short: as §1

[11] = tested on: bermudagrass (Cynodon dactylon)
In short: as §1

[12] = tested on: large crabgrass (Digitaria sanguinalis)
In short: as §1

[13] = 31 g ai/ha, postemergence, scale 0 to 100, 0 is no effect, 100 is complete control
[14] = 62 g ai/ha, postemergence, 0 is no effect, 100 is complete control, 13 to 15 days
[15] = Postemergence, 125 g ai/ha, scale 0 to 100 (0 no effect, 100 complete control)
[16] = Postemergence, 250 g ai/ha, scale 0 to 100 (0 no effect, 100 complete control)

## COCCCn1c(-c2cccc(C)c2)ncc(C(=O)C2=C(O)CCCC2=O)c1=O [Compound 118, 5-[(2-hydroxy-6-oxo-1-cyclohexane-1-yl)carbonyl]-3-(3-methoxypropyl)-2-(3-methylphenyl)-4(3H)-pyrimidinone]
[1]; [13]
  Plant response rating, Foxtail, Giant: 75
[1]; [14]
  Foxtail, Giant plant response rating (0 to 100 scale): 80
[1]; [15]
  Plant response rating, Foxtail, Giant: 85
[1]; [16]
  Plant response rating, Foxtail, Giant: 95
[2]; [13]
  Plant response rating, Nutsedge, Yellow: 35
[2]; [14]
  Nutsedge, Yellow plant response rating (0 to 100 scale): 45
[2]; [15]
  Plant response rating, Nutsedge, Yellow: 65
[2]; [16]
  Plant response rating, Nutsedge, Yellow: 65
[3]; [13]
  Plant response rating, Foxtail, Green: 50
[3]; [14]
  Foxtail, Green plant response rating (0 to 100 scale): 85
[3]; [15]
  Plant response rating, Foxtail, Green: 95
[3]; [16]
  Plant response rating, Foxtail, Green: 95
[4]; [13]
  Plant response rating, Blackgrass: 5
[4]; [14]
  Blackgrass plant response rating (0 to 100 scale): 10
[4]; [15]
  Plant response rating, Blackgrass: 35
[4]; [16]
  Plant response rating, Blackgrass: 40
[5]; [13]
  Plant response rating, Lambsquarters: 85
[5]; [14]
  Lambsquarters plant response rating (0 to 100 scale): 98
[5]; [15]
  Plant response rating, Lambsquarters: 100
[5]; [16]
  Plant response rating, Lambsquarters: 100
[6]; [14]
  Ryegrass, Italian plant response rating (0 to 100 scale): 5
[6]; 125 g ai/ha
  Plant response rating, Ryegrass, Italian: 5
[6]; 250 g ai/ha
  Plant response rating, Ryegrass, Italian: 60
[7]; [13]
  Plant response rating, Bromegrass, Downy: 0
[7]; [14]
  Bromegrass, Downy plant response rating (0 to 100 scale): 5
[7]; [15]
  Plant response rating, Bromegrass, Downy: 30
[7]; [16]
  Plant response rating, Bromegrass, Downy: 35
[8]; 125 g ai/ha
  Plant response rating, Surinam Grass: 75
[8]; 250 g ai/ha
  Plant response rating, Surinam Grass: 90
[9]; [13]
  Plant response rating, Cupgrass, Woolly: 65
[9]; [14]
  Cupgrass, Woolly plant response rating (0 to 100 scale): 70
[9]; [15]
  Plant response rating, Cupgrass, Woolly: 75
[9]; [16]
  Plant response rating, Cupgrass, Woolly: 95
[10]; [13]
  Plant response rating, Morningglory: 10
[10]; [14]
  Morningglory plant response rating (0 to 100 scale): 60
[10]; [15]
  Plant response rating, Morningglory: 70
[10]; [16]
  Plant response rating, Morningglory: 80
Corn (Zea mays); [13]
  Plant response rating, Corn: 0
Corn (Zea mays); [14]
  Corn plant response rating (0 to 100 scale): 0
Corn (Zea mays); [15]
  Plant response rating, Corn: 20
Corn (Zea mays); [16]
  Plant response rating, Corn: 25
[11]; [13]
  Plant response rating, Bermudagrass: 75
[11]; [14]
  Bermudagrass plant response rating (0 to 100 scale): 95
[11]; [15]
  Plant response rating, Bermudagrass: 98
[11]; [16]
  Plant response rating, Bermudagrass: 98
[12]; [13]
  Plant response rating, Crabgrass, Large: 70
[12]; [14]
  Crabgrass, Large plant response rating (0 to 100 scale): 75
[12]; [15]
  Plant response rating, Crabgrass, Large: 80
[12]; [16]
  Plant response rating, Crabgrass, Large: 95
